Patent publication US20210308211A1, “METHOD OF TREATING VIRAL INFECTIONS” (priority 2020, published 2021)
Non-standard residues stand in square brackets, D forms with d. Residues, ends and D or L forms follow the SMILES beside them. pS = N[C@@H](COP(=O)(O)O)C(=O)O

Legend:
MRL/lpr mice = test: Gougerot-Sjögren syndrome model, salivary glands of MRL/lpr mice; type: in vivo, mouse
Procedure: In this study MRL/lpr female 11-12 week old mice were used with 10 mice per group for statistical analysis. Each mouse received a single injection by retro-orbital, 100 μg of peptide P140 of 100 μl in […]. After 5 days, the mouse blood was collected in heparinized tube and salivary glands (GSS) were removed and placed in Eppendorf tubes containing PBS pH 7.4.
The number of foci site (FS) is determined for each mouse. A focus is defined as an aggregate of 50 or more cells.
The level of inflammation SG is determined semiquantitatively by a scoring system (0-3 scale): Grade 0: no inflammatory cells; Grade 1: few perivascular inflammatory and periductal Infiltrates (<100 cells); Grade 2: moderate number of perivascular inflammatory and periductal Infiltrates (100-500 cells); Grade 3: extensive inflammation with inflammatory foci broad (>500 cells).
Cells of total salivary glands stained with fluorescently were labeled antibodies for 40 min at 4° C., Were Collected data by FACSCalibur.
The weight of salivary glands Was Measured after-excision. DNase I (1 mg/ml) and collagenase D (50 μg/ml) were used to digest the salivary glands. Total cell counts were evaluated after the digestion.
The MRL/lpr mice (10 mice per arm) were injected with peptide P140 (100 μl/mouse iv). Five days after injection the mice were sacrificed and SGs collected as indicated above. The tissue was cut by the cryostat sections of 5 μm. The sections were labeled with hematoxylin/eosin staining is the method most frequently used in tissue histology. The level of inflammation and the number of FS were determined (FIGS. 17 and 18). Representative pictures are from sample control group 4 and group Treated sample (Bar 500 μm).

Lewis rats = test: Chronic-EAN rat model of CIDP; conditions: 100 μg/rat i.p.
Procedure: Male Lewis rats, 7-8 weeks old, weighing 250-270 g, purchased from Charles River (Domaine des Oncins, L′Arbresle, France) were used.
Body weight and clinical scores are assessed daily until 60 days post-immunization (dpi). Severity of paresis is graded as follows: 0=no illness; 1=flaccid tail; 2=moderate paraparesis; 3=severe paraparesis; 4=tetraparesis; 5=death.
100 μg/rat P140 peptide in 500 μL water/saline (1:10) were intraperitoneally injected at 5, 7, 9, 13 dpi and 3 times per week from 22 dpi until the end of the study.

C57BL/6 mice = test: K/B×N serum transfer arthritis, curative protocol; type: in vivo, mouse
Procedure: The TCR transgenic mice expressing the KRN and the MHC class II A^g7 molecule (K/B×N mice) have developed a severe inflammatory arthritis. The administration of serum of these mice to healthy recipient mice causes inflammatory arthritis over a period of about 15 days with a peak ignition around day 7 post-injection.
Two mouse serum administrations from K/B×N were performed (day 0 and day 2). The injection of serum (100 μl/mouse) is performed by intra-peritoneal (ip) injection in mice C57BL/6 (or B6) for 8 weeks (n=10); untreated mouse (n=10).
The P140 peptide (100 μg/100 μl; iv retro-orbital) was administered as follows:
Curative treatment: Injection at day 1 and day 4, to guide the peak of inflammatory disease. Preventive treatment: Injection at day −7 and day −2. Bleeding S0 (at day 0) is followed by bloodletting conducted every six days to dispose of serum. The study ends when inflammation has returned to its basal level, to around day 20 (see FIG. 19).
During the peak of inflammation, every day the animals are evaluated, and swelling score of articulation is established. It is ranged from 0 to 4 and based on a joint observation of the animal. In practice, this score is given for each leg (4 values) and these values are added together to get a general score that ranges from 0 to 16 (FIG. 20).

[1] = 5 days after one single iv injection
[2] = 5 days after one single iv injection, flow cytometry

SMILES: CC[C@H](C)[C@H](NC(=O)[C@H](Cc1ccccc1)NC(=O)[C@H](C)NC(=O)[C@H](Cc1ccc(O)cc1)NC(=O)CNC(=O)[C@H](CCCNC(=N)N)NC(=O)[C@@H]1CCCN1C(=O)[C@H](CCCCN)NC(=O)CNC(=O)[C@H](COP(=O)(O)O)NC(=O)[C@H](CCCNC(=N)N)NC(=O)[C@H](CCCCN)NC(=O)[C@H](CO)NC(=O)[C@H](Cc1ccc(O)cc1)NC(=O)[C@@H](NC(=O)[C@H](CCSC)NC(=O)[C@H](Cc1c[nH]cn1)NC(=O)[C@@H](NC(=O)[C@@H](N)CCCNC(=N)N)[C@@H](C)CC)C(C)C)C(=O)N[C@@H](CCC(=O)O)C(=O)N[C@@H](Cc1ccc(O)cc1)C(=O)O [Compound P140] (H-RIHMVYSKR[pS]GKPRGYAFIEY-OH; N-terminus and C-terminus assumed)
- Lymphocytic infiltration in the SGs (MRL/lpr mice; 5 days after one single administration, hematoxylin/eosin): significantly reduced
- Total number of cells present in the SGs (MRL/lpr mice; [1]): no apparent effect
- Weight of SGs (salivary glands) (MRL/lpr mice; [1]): no statistically significant effect
- CD4+T cells in SGs (MRL/lpr mice; [2]): decreased
- Total number of B cells in SGs (MRL/lpr mice; [2]): no statistically significant effect
- Chronicity of the disease (Lewis rats): seems abolish the chronicity
- Maximal clinical scores (Lewis rats; compared to untreated rats): decreased
- Onset of the disease (Lewis rats; compared to untreated rats): delayed
- Weight loss during the disease course (Lewis rats; compared to untreated rats): less important
- Weight loss (C57BL/6 mice; curative protocol (injection day 1 and day 4), from day 2, NaCl 10%): 15%
- Weight gain (C57BL/6 mice; curative protocol, between day 5 and the end of the study, controls 5%): 20%
- Inflammation score, maximum (C57BL/6 mice; curative protocol, per rear leg, same for controls): ~1.5
